Data as given in patent US20210113499A1, “CERAMIDE MIMICS FOR TREATMENT OF ALZHEIMER'S DISEASE” (University of Kentucky Research Foundation, priority 2019, published 2021).

System: 5×FAD exosomes (Aβ-associated astrosomes)
Assay: Incubation of serum exosomes with ceramide analogs or anti-ceramide IgG; vesicle size by nanoparticle tracking analysis (ZetaView)
Format: biochemical, mouse
Details: for Vesicle size reduced: 5×FAD serum exosomes incubated at 37° C. for 16 h with 50 μM ceramide analog, NTA
Experimental: Sera were isolated from freshly obtained mouse blood. Blood was drawn through heart puncture and was allowed to clot at room temperature for 30 min. Blood was then centrifuged at 1,800×g for 10 min at 4° C. The clear upper layer was transferred to a fresh tube and centrifuged at 3,000×g for 15 min to pellet residual blood cells. Exosomes were extracted using ExoQuick exosome solution (EXOQ; System Biosciences, Inc., Mountain View, Calif., USA) according to the manufacturer protocol. Briefly, one-fourth milliliter aliquots of serum was treated with 67 μl of ExoQuick exosome solution, followed by incubation for 60 min at 4° C. to precipitate total exosomes. Tubes were then centrifuged at 1,500×g for 30 min. Each exosome pellet was resuspended in 100 μl of PBS with 1× Halt™ Protease Inhibitor Cocktail (Thermo Fisher, Massachusetts, USA). In certain experiments exosomes were labeled with PKH67 Green Fluorescent Dye. The exosomes were labeled with PKH67 Green Fluorescent Cell Linker Kit for General Cell Membrane Labelling (Sigma-Aldrich) according to the manufacturer's protocol. Briefly, ExoQuick pellets were resuspended in PBS, 1 ml of Diluent C (CGLDIL, Sigma-Aldrich) was then added to each sample. As a control, 1 ml of Diluent C after adding the same volume of PBS was used. Next, 4 μl of PKH67 dye was added to 1 ml of Diluent C then mixed with the exosomes and the control, PKH67/Diluent C mixture was ultra-centrifuged before being added to samples. The samples were allowed to incubate <5 min on a rotor plate. One ml of 1% BSA was then added to bind excess dye. Samples were ultra-centrifuged at 110,000×g for 70 min, washed and centrifuged again. For exosomes quantification, nanoparticle tracking analysis (NTA) with the ZetaView PMX110 (Particle Metrix) was used. Briefly, exosomes were resuspended in PBS. Two ml of appropriately diluted samples were injected into the ZetaView cell. The instrument was set to obtain NTA measurements at 11 positions, two cycles at each position. […]

SMILES	Vesicle size reduced	Aggregates formed by 5×FAD serum astrosomes associated with Aβ (size distribution, FIG. 2D) (5×FAD exosomes treated with ceramide analog, particle diameter by NTA)
CCCCCCCCCCCCCCCC(=O)N(CCO)CCO [B16, N-palmitoyl bisethanolamine]	not	–
CCCCCCCC/C=C\CCCCCCCC(=O)NC(CO)CO [S18, N-oleoyl serinol]	17%	reduced
